Laboratory results published in US11208412B2 (DAEGU-GYEONGBUK MEDICAL INNOVATION FOUNDATION, priority 2017, dated 2021).
Read-outs that look alike come from different tables or passages of the source.

Columns and labels:
Assay in all cases: Kinase selectivity, DiscoverX scanMAX Kinase assay panel (% control)
Assay type in all cases: binding
[1] = molecular target: T1, kinases of the scanMAX Kinase assay panel (Homo sapiens, UniProt O14730); conditions: kinase RIOK3; 1 uM in DMSO
T1 construct: purchased DiscoverX Co. (contract measurement) scanMAX Kinase assay panel
T1 sequence (O14730 1-519): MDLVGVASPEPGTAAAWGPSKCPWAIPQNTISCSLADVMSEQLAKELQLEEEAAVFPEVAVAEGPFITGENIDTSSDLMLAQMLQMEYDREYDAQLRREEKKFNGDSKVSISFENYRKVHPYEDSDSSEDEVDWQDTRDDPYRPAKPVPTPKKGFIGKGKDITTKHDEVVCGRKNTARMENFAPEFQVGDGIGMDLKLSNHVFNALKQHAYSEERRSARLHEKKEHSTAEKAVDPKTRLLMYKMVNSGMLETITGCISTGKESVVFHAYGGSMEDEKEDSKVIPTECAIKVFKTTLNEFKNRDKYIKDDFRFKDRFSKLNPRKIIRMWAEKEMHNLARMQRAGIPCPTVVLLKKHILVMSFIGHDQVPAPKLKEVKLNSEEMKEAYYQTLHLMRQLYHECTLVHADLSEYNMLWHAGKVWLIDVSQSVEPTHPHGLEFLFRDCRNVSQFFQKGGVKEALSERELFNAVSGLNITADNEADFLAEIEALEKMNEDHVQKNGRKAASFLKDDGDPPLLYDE
Procedure, shortened: (§1)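 Compounds were tested at 1 uM (in DMSO) against each panel kinase. % control was calculated as (compound − positive control)/(negative control − positive control)×100, where the positive control gives 0% and DMSO gives 100%. Activity toward a kinase was called at % control <35%.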

[2] = molecular target: T2, kinases of the scanMAX Kinase assay panel (Homo sapiens, UniProt O75582); conditions: 1 uM in DMSO
T2 construct: purchased DiscoverX Co. (contract measurement) scanMAX Kinase assay panel
Procedure, shortened: as §1

[3] = molecular target: T3, kinases of the scanMAX Kinase assay panel (Homo sapiens, UniProt P35590); conditions: kinase TIE1; 1 uM in DMSO
T3 construct: purchased DiscoverX Co. (contract measurement) scanMAX Kinase assay panel
Procedure, shortened: as §1

[4] = molecular target: T4, kinases of the scanMAX Kinase assay panel (Homo sapiens, UniProt P45984); conditions: JNK2; 1 uM
T4 construct: purchased DiscoverX Co. (contract measurement) scanMAX Kinase assay panel
Procedure, shortened: as §1

[5] = molecular target: T5, kinases of the scanMAX Kinase assay panel (Homo sapiens, UniProt Q13464); conditions: kinase ROCK1; 1 uM in DMSO
T5 construct: purchased DiscoverX Co. (contract measurement) scanMAX Kinase assay panel
Procedure, shortened: as §1

[6] = molecular target: T6, kinases of the scanMAX Kinase assay panel (Homo sapiens, UniProt Q15569); conditions: kinase TESK1; 1 uM in DMSO
T6 construct: purchased DiscoverX Co. (contract measurement) scanMAX Kinase assay panel
Procedure, shortened: as §1

[7] = molecular target: T7, kinases of the scanMAX Kinase assay panel (Homo sapiens, UniProt Q9UBF8); conditions: PIK4CB; 1 uM
T7 construct: purchased DiscoverX Co. (contract measurement) scanMAX Kinase assay panel
Procedure, shortened: as §1

[8] = molecular target: T8, kinases of the scanMAX Kinase assay panel (Homo sapiens, UniProt Q9UL54); conditions: kinase TAOK2; 1 uM in DMSO
T8 construct: purchased DiscoverX Co. (contract measurement) scanMAX Kinase assay panel
T8 sequence (Q9UL54 1-1235): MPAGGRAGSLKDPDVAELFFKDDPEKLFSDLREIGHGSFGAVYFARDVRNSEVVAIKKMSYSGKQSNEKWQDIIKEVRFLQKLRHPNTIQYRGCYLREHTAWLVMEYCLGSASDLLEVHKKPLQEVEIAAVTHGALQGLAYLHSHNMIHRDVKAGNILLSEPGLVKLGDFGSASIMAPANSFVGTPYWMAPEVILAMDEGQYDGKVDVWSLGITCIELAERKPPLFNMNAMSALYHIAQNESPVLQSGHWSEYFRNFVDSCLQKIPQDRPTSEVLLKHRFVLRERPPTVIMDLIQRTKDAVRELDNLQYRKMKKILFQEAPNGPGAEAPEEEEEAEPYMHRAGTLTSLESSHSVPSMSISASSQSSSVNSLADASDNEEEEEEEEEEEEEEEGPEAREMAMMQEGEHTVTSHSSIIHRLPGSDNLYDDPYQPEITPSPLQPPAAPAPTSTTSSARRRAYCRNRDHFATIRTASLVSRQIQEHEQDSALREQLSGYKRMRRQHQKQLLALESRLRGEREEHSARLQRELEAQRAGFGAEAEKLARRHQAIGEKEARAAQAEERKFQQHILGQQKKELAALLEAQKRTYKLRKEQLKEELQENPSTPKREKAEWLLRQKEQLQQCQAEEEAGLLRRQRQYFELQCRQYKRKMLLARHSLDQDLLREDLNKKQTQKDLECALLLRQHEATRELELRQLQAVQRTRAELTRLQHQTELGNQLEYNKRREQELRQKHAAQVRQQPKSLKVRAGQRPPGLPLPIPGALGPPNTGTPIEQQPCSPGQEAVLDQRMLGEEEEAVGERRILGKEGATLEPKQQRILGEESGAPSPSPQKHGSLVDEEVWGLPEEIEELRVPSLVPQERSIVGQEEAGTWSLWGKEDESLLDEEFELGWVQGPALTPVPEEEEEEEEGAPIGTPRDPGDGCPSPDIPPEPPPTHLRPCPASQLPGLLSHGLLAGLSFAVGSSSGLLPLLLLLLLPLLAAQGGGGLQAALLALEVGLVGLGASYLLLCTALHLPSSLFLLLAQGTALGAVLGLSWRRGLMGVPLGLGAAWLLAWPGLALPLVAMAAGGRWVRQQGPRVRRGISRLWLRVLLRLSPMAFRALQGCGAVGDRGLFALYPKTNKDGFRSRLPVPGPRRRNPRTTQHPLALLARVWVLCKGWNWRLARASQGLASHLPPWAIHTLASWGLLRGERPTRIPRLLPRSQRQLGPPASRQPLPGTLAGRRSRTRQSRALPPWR
Procedure, shortened: as §1

[9] = kinase RPS6KA5(Kin.Dom.1-N-terminal), read-out: % control, RPS6KA5(Kin.Dom.1-N-terminal)
[10] = kinase RPS6KA5(Kin.Dom.2-C-terminal), read-out: % control, RPS6KA5(Kin.Dom.2-C-terminal)

T4 sequence (P45984 whole entry): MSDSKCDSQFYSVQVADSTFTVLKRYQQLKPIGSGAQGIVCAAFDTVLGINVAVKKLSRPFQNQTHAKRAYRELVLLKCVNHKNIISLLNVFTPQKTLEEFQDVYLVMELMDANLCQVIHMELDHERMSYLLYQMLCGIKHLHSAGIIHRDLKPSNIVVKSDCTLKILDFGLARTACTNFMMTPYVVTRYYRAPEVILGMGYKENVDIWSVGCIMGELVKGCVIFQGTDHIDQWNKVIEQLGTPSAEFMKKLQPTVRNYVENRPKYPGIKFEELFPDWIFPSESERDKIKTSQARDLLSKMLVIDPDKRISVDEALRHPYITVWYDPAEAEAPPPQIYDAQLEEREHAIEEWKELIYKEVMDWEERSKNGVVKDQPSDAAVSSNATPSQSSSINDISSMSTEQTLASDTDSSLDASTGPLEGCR
T7 sequence (Q9UBF8 whole entry): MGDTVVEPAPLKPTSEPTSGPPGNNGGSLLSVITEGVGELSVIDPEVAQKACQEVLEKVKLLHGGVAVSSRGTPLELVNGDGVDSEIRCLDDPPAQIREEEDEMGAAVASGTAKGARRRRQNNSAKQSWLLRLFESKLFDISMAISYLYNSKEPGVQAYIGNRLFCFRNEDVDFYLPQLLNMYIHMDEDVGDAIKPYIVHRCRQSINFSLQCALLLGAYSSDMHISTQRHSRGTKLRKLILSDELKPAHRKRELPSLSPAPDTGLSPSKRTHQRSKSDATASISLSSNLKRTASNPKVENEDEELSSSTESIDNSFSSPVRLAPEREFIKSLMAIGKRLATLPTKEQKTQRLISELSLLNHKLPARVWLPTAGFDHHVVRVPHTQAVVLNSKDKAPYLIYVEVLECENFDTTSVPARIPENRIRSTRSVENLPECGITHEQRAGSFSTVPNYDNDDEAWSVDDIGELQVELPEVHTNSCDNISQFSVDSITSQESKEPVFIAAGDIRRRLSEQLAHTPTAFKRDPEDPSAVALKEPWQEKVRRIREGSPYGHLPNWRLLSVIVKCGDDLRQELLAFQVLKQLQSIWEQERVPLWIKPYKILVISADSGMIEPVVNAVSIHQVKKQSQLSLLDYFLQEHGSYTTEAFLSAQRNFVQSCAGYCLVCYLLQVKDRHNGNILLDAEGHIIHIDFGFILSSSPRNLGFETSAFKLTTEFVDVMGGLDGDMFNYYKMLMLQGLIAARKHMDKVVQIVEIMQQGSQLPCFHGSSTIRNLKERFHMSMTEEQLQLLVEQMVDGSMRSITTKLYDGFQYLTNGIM
T6 sequence (Q15569 whole entry): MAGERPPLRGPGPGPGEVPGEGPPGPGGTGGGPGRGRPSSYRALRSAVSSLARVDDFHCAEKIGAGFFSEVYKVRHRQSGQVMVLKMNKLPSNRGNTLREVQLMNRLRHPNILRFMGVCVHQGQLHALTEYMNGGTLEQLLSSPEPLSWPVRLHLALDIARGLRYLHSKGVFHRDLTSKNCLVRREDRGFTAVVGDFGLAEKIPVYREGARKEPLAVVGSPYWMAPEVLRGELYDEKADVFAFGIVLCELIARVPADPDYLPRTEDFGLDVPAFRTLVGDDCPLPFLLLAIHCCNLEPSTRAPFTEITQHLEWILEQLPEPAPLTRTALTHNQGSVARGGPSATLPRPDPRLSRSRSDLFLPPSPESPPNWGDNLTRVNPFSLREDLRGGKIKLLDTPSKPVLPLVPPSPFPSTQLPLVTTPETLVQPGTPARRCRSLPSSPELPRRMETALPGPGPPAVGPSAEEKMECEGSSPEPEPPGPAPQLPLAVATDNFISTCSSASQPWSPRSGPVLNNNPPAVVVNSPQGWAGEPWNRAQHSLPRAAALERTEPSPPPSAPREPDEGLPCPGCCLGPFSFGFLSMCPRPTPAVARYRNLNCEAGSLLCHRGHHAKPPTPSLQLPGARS
T5 sequence (Q13464 whole entry): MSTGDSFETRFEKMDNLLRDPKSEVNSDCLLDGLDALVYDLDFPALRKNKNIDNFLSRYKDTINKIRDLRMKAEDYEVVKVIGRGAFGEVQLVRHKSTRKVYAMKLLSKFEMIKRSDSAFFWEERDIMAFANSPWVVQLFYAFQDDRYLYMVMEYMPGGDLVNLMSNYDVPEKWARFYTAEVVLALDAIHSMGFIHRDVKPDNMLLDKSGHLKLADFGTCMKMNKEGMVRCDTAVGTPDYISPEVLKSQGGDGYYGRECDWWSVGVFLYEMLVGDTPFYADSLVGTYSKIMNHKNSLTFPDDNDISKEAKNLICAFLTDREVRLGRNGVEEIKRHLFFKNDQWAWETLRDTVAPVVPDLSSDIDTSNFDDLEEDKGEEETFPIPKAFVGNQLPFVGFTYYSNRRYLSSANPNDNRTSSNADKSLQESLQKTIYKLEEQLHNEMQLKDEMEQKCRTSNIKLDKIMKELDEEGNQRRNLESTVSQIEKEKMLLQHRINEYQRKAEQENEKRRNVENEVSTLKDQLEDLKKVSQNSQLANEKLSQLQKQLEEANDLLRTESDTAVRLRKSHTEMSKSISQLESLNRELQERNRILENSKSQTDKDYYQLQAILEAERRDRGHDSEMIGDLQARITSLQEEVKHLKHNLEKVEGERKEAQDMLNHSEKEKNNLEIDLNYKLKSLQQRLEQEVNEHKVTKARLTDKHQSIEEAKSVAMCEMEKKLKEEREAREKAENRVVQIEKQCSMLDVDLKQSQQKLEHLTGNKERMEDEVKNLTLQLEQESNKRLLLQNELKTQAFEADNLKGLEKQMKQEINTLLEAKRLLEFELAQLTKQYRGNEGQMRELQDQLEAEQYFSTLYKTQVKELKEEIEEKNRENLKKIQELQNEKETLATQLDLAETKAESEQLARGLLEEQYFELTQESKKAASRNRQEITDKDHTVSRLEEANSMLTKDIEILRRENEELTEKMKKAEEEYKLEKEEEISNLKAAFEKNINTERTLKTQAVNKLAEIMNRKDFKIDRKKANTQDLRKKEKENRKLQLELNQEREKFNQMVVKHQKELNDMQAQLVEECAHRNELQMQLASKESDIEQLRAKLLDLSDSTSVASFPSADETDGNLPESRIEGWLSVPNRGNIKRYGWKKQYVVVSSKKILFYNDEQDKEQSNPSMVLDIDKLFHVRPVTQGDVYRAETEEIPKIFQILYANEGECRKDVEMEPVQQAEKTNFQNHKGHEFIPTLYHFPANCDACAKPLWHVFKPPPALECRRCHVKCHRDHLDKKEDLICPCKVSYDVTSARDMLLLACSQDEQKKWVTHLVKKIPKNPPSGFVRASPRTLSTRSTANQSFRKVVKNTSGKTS
T3 sequence (P35590 22-1138): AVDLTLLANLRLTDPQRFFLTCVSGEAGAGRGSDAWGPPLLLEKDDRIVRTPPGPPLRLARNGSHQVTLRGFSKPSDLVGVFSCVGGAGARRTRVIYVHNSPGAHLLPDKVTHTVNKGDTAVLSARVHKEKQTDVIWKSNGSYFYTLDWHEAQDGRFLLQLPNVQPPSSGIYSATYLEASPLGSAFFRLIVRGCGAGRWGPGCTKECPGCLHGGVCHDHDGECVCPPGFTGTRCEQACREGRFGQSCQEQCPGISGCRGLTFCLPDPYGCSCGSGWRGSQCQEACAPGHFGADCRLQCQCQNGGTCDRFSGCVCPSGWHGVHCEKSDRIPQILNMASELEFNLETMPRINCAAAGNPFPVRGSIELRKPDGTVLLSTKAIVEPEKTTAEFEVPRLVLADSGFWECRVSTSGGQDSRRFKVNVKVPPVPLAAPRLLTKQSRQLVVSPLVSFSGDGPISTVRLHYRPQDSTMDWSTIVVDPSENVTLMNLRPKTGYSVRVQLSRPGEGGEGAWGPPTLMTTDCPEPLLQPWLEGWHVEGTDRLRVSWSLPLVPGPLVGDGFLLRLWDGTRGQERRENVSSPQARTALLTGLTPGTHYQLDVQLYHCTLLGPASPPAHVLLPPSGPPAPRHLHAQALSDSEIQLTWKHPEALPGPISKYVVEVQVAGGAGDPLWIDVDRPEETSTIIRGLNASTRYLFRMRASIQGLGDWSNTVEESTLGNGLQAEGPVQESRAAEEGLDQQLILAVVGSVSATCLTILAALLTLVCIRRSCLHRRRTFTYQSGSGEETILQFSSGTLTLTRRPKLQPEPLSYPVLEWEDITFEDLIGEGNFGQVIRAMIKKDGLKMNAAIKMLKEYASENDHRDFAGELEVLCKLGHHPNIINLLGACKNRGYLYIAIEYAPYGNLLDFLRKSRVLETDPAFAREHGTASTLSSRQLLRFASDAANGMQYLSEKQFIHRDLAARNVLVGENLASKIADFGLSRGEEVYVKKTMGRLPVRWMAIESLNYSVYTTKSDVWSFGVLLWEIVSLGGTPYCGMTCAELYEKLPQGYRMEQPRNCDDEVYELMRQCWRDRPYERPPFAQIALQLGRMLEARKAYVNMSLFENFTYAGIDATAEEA

Row | Compound | remaining binding at 1 µM [1] | remaining binding at 1 µM [2, 9] | remaining binding at 1 µM [2, 10] | remaining binding at 1 µM [3] | remaining binding at 1 µM [4] | remaining binding at 1 µM [5] | remaining binding at 1 µM [6] | remaining binding at 1 µM [7] | remaining binding at 1 µM [8]
1 | CC1(Nc2nc(Nc3cnn([C@H]4CCN(C5COC5)C[C@@H]4F)c3Cl)nc3[nH]cc(C#N)c23)CC1 [Example 52, 2-((5-chloro-1-((3S,4S)-3-fluoro-1-(oxetane-3-yl)piperidine-4-yl)-1H-pyrazole-4-yl)amino)((1-methylcyclopropyl)amino)-7H-pyrrolo[2,3-d]pyrimidine-5-carbonitrile] | 0.4% | 100% | 24% | 19% | 0% | 28% | 65% | 60% | 40%
2 | CNc1nc(Nc2ccc(C(=O)N3CCOCC3)cc2OC)nc2[nH]cc(C#N)c12 [Example 1, 2-((2-methoxy-4-(morpholine-4-carbonyl)phenyl)amino)-4-(methylamino)-7H-pyrrolo[2,3-d]pyrimidine-5-carbonitrile] | 97% | 94% | 12% | 96% | 0.1% | 64% | 100% | 61% | 78%
3 | CCNc1nc(Nc2ccc(C(=O)N3CCC(N4CCOCC4)CC3)cc2OC)nc2[nH]cc(C(F)(F)F)c12 [Example 104, (4-((4-(ethylamino)-5-(trifluoromethyl)-7H-pyrrolo[2,3-d]pyrimidine-2-yl)amino)-3-methoxyphenyl)(4-morpholinopiperidine-1-yl)methanone] | 100% | 100% | 83% | 100% | 23% | 100% | 100% | 99% | 87%
